Reference: US20190015312A1, “COSMETIC FORMULATIONS” (KIMBERLY-CLARK WORLDWIDE, INC., priority 2015, published 2019)

System: volunteer human subjects
Assay: Human clinical anti-perspirant study, gravimetric perspiration on lower back
Assay type: in vivo
Settings: Table D study; Acetyl Hexapeptide-30 and Pentapeptide-18 tested in combination
Experimental: The effectiveness of the peptide material at addressing perspiration was evaluated in a human clinical study. The screening of various potential sweat-reducing materials was determined using at least 20 volunteer human subjects. Twenty-four subjects were planned for enrollment into the study to ensure that 20 subjects completed testing. Baseline screening was performed on up to 40 subjects to ensure a sufficient number of subjects were enrolled in the treatment application phase who met minimum sweat production criteria of 50 mg over a 20-minute collection period. As shown in Table C and Table D, each subject had seven test materials randomly applied to the lower back in 2 inch by 2 inch treatment application areas and one site was left untreated on each subject as a control. The study subjects participated in a 4-day test period consisting of four, supervised treatment applications, spaced 24-hours apart, and one post treatment application sweat collection period 1-hour post-product application on Day 4. The study staff visually assessed the application sites, and applied each of the test materials to the backs of the subjects. […] Subjects were instructed to not leave the room during the approximately 60-minute test period. • Absorbent gauze sponges, 2 inch by 2 inch (two 4-ply sponges, Avant Gauze® Sponges), were applied to the eight sites on the lower back of the subjects. Sponges were occluded on the site using 3MTM BlendermTM Medical Tape, and affixed to the site using Scanpor® Paper Tape. • The sponges remained in place for a 20-minute acclimation period. […] Subjects were not allowed to consume water during this 20-minute period. • Following the 20-minute period, the sponges with the 3MTM BlendermTM Medical Tape were removed and sealed in a bag or container for weighing within 1-hour of removal. • After exiting the temperature-controlled room, the subjects again sat in normal ambient indoor temperature for at least 20-minutes, and trained technicians determined the body temperature, pulse, and blood pressure of each subject. […]

Row | Substance | Activity of the peptide in the presence of a salt based cosmetic astringent, in words
1 | Acetyl Dipeptide-1 Cetyl Ester | high activity
2 | Pentapeptide-18 | high activity
3 | Acetyl Hexapeptide-30 | high activity
